What was measured:
[1] = DRUGMATRIX: Leukotriene, BLT (LTB4) radioligand binding (ligand: [3H]LTB4); assay type: cell membranes, Membrane; conditions: u-937; Not Active = under 50% inhibition at 10 µM
Cytochrome P450 3A4 = Cytochrome P450 3A4 (Homo sapiens, UniProt P08684); conditions: bti-tn-5b1-4; also: in other assays of this panel Not Active means under 50% inhibition at 10 µM
[2] = DRUGMATRIX: Tumor Necrosis Factor (TNF), Non-Selective radioligand binding (ligand: [125I] TNF-alpha); assay type: cell membranes, Membrane; conditions: u-937; Not Active = under 50% inhibition at 10 µM
[3] = DRUGMATRIX: Calcium Channel Type L, Benzothiazepine radioligand binding (ligand: [3H] Diltiazem); assay type: cell membranes, Rattus norvegicus, Wistar, Brain, Membrane; conditions: Not Active = under 50% inhibition at 10 µM
Glycine receptor = Glycine receptor (Rattus norvegicus, UniProt P22771+P24524+P07727+P20781); assay type: cell membranes, Wistar, Spinal cord, Membrane; also: in other assays of this panel Not Active means under 50% inhibition at 10 µM
Leukotriene C4 synthase = target: T1, Leukotriene C4 synthase (Cavia porcellus, UniProt A6XA80); assay type: tissue-based, Lung;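 also: enzyme inhibition assay of leukotriene C4 synthase, using LTA4 as the substrate; in other assays of this panel Not Active means under 50% inhibition at 10 µM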
T1 sequence (A6XA80 whole entry): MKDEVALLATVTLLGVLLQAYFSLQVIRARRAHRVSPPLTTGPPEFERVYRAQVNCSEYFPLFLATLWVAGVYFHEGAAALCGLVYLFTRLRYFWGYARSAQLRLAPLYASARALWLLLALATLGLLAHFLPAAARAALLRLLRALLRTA

[4] = target: T2, 3-hydroxy-3-methylglutaryl-coenzyme A reductase (Homo sapiens, UniProt P04035); design: species or system Escherichia coli;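 also: enzyme inhibition assay of HMG-CoA reductase using radiolabeled [14C]HMG-CoA as substrate; in other assays of this panel Not Active means under 50% inhibition at 10 µM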
T2 sequence (P04035 whole entry): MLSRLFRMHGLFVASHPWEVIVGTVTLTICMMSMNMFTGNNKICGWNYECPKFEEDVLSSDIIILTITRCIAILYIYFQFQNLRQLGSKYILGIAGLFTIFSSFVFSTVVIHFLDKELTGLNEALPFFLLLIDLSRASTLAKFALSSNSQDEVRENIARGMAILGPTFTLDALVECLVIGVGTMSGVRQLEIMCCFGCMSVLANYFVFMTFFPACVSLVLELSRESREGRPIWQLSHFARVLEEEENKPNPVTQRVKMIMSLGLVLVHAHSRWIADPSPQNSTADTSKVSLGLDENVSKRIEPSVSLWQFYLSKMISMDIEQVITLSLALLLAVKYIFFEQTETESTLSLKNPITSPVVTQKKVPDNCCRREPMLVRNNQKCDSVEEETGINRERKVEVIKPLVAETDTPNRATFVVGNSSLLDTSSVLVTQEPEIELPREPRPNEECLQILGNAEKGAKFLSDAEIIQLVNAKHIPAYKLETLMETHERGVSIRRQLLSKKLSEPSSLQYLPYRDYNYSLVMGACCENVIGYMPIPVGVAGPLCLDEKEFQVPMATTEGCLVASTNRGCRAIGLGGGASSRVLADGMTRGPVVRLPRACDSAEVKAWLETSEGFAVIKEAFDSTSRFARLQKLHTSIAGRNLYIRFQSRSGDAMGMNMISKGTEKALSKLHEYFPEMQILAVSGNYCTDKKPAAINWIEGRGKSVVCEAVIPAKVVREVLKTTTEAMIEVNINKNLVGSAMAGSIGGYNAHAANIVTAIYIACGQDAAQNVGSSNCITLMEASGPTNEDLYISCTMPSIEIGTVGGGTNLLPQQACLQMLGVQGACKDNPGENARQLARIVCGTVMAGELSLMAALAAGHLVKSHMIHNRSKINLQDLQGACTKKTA

[5] = target: T3, Neuropeptide Y receptor type 1 (Homo sapiens, UniProt P25929); assay type: cell membranes, Membrane; conditions: sk-n-mc; also: in other assays of this panel Not Active means under 50% inhibition at 10 µM
T3 sequence (P25929 whole entry): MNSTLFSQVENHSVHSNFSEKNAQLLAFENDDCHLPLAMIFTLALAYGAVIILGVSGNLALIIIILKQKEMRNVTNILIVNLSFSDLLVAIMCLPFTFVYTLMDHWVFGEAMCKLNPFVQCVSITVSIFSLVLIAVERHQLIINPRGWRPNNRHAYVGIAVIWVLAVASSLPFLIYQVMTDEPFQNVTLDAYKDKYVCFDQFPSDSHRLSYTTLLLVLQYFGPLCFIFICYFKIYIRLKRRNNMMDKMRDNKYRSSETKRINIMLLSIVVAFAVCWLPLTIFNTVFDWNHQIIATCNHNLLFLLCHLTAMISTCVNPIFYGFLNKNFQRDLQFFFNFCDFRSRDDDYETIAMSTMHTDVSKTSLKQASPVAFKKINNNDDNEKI

Sequence of Cytochrome P450 3A4 (P08684 whole entry): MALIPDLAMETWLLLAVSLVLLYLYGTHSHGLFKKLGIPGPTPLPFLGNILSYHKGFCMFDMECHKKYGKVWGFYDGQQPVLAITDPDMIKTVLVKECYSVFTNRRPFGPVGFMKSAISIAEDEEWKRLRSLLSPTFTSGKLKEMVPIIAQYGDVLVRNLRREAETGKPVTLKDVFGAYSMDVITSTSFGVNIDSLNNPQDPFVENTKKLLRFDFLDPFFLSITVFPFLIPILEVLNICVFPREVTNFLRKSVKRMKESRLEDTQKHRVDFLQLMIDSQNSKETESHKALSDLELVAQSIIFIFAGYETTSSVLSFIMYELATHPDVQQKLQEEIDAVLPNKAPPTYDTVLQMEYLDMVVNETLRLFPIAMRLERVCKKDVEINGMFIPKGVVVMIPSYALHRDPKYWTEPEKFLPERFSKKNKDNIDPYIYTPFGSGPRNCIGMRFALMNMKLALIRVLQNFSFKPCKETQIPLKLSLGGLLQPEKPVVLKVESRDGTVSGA

COLISTIN
Not Active: IC50 [1] | Ki [1] | IC50 (Cytochrome P450 3A4) | Ki (Cytochrome P450 3A4) | IC50 [2] | Ki [2] | IC50 [3] | Ki [3] | IC50 (Glycine receptor) | Ki (Glycine receptor) | IC50 (Leukotriene C4 synthase) | Ki (Leukotriene C4 synthase) | IC50 [4] | Ki [4] | IC50 [5] | Ki [5]

O=c1c(-c2ccc(O)cc2)coc2cc(O)cc(O)c12 [GENISTEIN]
Not Active: IC50 [1] | Ki [1] | IC50 (Cytochrome P450 3A4) | Ki (Cytochrome P450 3A4) | IC50 [2] | Ki [2] | IC50 [3] | Ki [3] | IC50 (Glycine receptor) | IC50 (Leukotriene C4 synthase) | IC50 [4] | IC50 [5]

CN1C[C@@H]2C[C@H]1CN2c1cc2c(cc1F)c(=O)c(C(=O)O)cn2C1CC1 [DANOFLOXACIN]
Not Active: IC50 [1] | Ki [1] | IC50 (Cytochrome P450 3A4) | Ki (Cytochrome P450 3A4) | IC50 [2] | Ki [2] | IC50 [3] | Ki [3] | IC50 (Glycine receptor) | IC50 (Leukotriene C4 synthase) | IC50 [4] | IC50 [5]

C[C@]12C=CC(=O)C=C1CC[C@H]1[C@@H]3C[C@@H](O)[C@](O)(C(=O)CO)[C@@]3(C)C[C@H](O)[C@@]12F [TRIAMCINOLONE]
Not Active: IC50 [1] | Ki [1] | IC50 (Cytochrome P450 3A4) | Ki (Cytochrome P450 3A4) | IC50 [2] | Ki [2] | IC50 [3] | Ki [3] | IC50 (Glycine receptor) | IC50 (Leukotriene C4 synthase) | IC50 [4] | IC50 [5]

CN1CCN(c2c(F)cc3c(=O)c(C(=O)O)cn(CCF)c3c2F)CC1 [FLEROXACIN]
Not Active: IC50 [1] | Ki [1] | IC50 (Cytochrome P450 3A4) | Ki (Cytochrome P450 3A4) | IC50 [2] | Ki [2] | IC50 [3] | Ki [3] | IC50 (Glycine receptor) | IC50 (Leukotriene C4 synthase) | IC50 [4] | IC50 [5]

CC(O)(P(=O)(O)O)P(=O)(O)O [ETIDRONIC ACID]
Not Active: IC50 [1] | Ki [1] | IC50 (Cytochrome P450 3A4) | Ki (Cytochrome P450 3A4) | IC50 [2] | Ki [2] | IC50 [3] | Ki [3] | IC50 (Glycine receptor) | IC50 (Leukotriene C4 synthase) | IC50 [4] | IC50 [5]

CCOC(=O)c1ncn2c1CN(C)C(=O)c1cc(F)ccc1-2 [FLUMAZENIL]
Not Active: IC50 [1] | Ki [1] | IC50 (Cytochrome P450 3A4) | Ki (Cytochrome P450 3A4) | IC50 [2] | Ki [2] | IC50 [3] | Ki [3] | IC50 (Glycine receptor) | IC50 (Leukotriene C4 synthase) | IC50 [4] | IC50 [5]

COc1ccc2c(c1OC)C(=O)O[C@@H]2[C@H]1c2c(cc3c(c2OC)OCO3)CCN1C [NOSCAPINE]
Not Active: IC50 [1] | Ki [1] | IC50 (Cytochrome P450 3A4) | Ki (Cytochrome P450 3A4) | IC50 [2] | Ki [2] | IC50 [3] | Ki [3] | IC50 (Glycine receptor) | IC50 (Leukotriene C4 synthase) | IC50 [4] | IC50 [5]

COBALTOUS CHLORIDE
Not Active: IC50 [1] | Ki [1] | IC50 (Cytochrome P450 3A4) | Ki (Cytochrome P450 3A4) | IC50 [2] | Ki [2] | IC50 [3] | Ki [3] | IC50 (Glycine receptor) | Ki (Glycine receptor) | IC50 (Leukotriene C4 synthase) | Ki (Leukotriene C4 synthase) | IC50 [4] | Ki [4] | IC50 [5] | Ki [5]

CC(=O)Oc1ccccc1C(=O)O [ASPIRIN]
Not Active: IC50 [1] | Ki [1] | IC50 (Cytochrome P450 3A4) | Ki (Cytochrome P450 3A4) | IC50 [2] | Ki [2] | IC50 [3] | Ki [3] | IC50 (Glycine receptor) | IC50 (Leukotriene C4 synthase) | IC50 [4] | IC50 [5]

CCN(CC)CCNC(=O)c1ccc(N)cc1 [PROCAINAMIDE]
Not Active: IC50 [1] | Ki [1] | IC50 (Cytochrome P450 3A4) | Ki (Cytochrome P450 3A4) | IC50 [2] | Ki [2] | IC50 [3] | Ki [3] | IC50 (Glycine receptor) | IC50 (Leukotriene C4 synthase) | IC50 [4] | IC50 [5]

Cc1cccc(C)c1NC(=O)C1CCCCN1C (stereo unspecified) [MEPIVACAINE]
Not Active: IC50 [1] | Ki [1] | IC50 (Cytochrome P450 3A4) | Ki (Cytochrome P450 3A4) | IC50 [2] | Ki [2] | IC50 [3] | Ki [3] | IC50 (Glycine receptor) | IC50 (Leukotriene C4 synthase) | IC50 [4] | IC50 [5]

O=c1[nH]c(=O)n([C@H]2C[C@H](O)[C@@H](CO)O2)cc1F [FLOXURIDINE]
Not Active: IC50 [1] | Ki [1] | IC50 (Cytochrome P450 3A4) | Ki (Cytochrome P450 3A4) | IC50 [2] | Ki [2] | IC50 [3] | Ki [3] | IC50 (Glycine receptor) | IC50 (Leukotriene C4 synthase) | IC50 [4] | IC50 [5]

O=C(O)CC(O)(CC(=O)O)C(=O)O [CITRIC ACID]
Not Active: IC50 [1] | Ki [1] | IC50 (Cytochrome P450 3A4) | Ki (Cytochrome P450 3A4) | IC50 [2] | Ki [2] | IC50 [3] | Ki [3] | IC50 (Glycine receptor) | IC50 (Leukotriene C4 synthase) | IC50 [4] | IC50 [5]

Cc1cc(O)cc(C)c1Cl [CHLOROXYLENOL]
Not Active: IC50 [1] | Ki [1] | IC50 (Cytochrome P450 3A4) | Ki (Cytochrome P450 3A4) | IC50 [2] | Ki [2] | IC50 [3] | Ki [3] | IC50 (Glycine receptor) | IC50 (Leukotriene C4 synthase) | IC50 [4] | IC50 [5]

O=C(O)CCCc1cccs1
Not Active: IC50 [1] | Ki [1] | IC50 (Cytochrome P450 3A4) | Ki (Cytochrome P450 3A4) | IC50 [2] | Ki [2] | IC50 [3] | Ki [3] | IC50 (Glycine receptor) | IC50 (Leukotriene C4 synthase) | IC50 [4] | IC50 [5]

CCCNC(=O)NS(=O)(=O)c1ccc(Cl)cc1 [CHLORPROPAMIDE]
Not Active: IC50 [1] | Ki [1] | IC50 (Cytochrome P450 3A4) | Ki (Cytochrome P450 3A4) | IC50 [2] | Ki [2] | IC50 [3] | Ki [3] | IC50 (Glycine receptor) | IC50 (Leukotriene C4 synthase) | IC50 [4] | IC50 [5]

CC(=O)OC[C@H]1O[C@@H](n2ncc(=O)[nH]c2=O)[C@H](OC(C)=O)[C@@H]1OC(C)=O [AZARIBINE]
Not Active: IC50 [1] | Ki [1] | IC50 (Cytochrome P450 3A4) | Ki (Cytochrome P450 3A4) | IC50 [2] | Ki [2] | IC50 [3] | Ki [3] | IC50 (Glycine receptor) | IC50 (Leukotriene C4 synthase) | IC50 [4] | IC50 [5]

NCCCNCCSP(=O)(O)O [AMIFOSTINE]
Not Active: IC50 [1] | Ki [1] | IC50 (Cytochrome P450 3A4) | Ki (Cytochrome P450 3A4) | IC50 [2] | Ki [2] | IC50 [3] | Ki [3] | IC50 (Glycine receptor) | IC50 (Leukotriene C4 synthase) | IC50 [4] | IC50 [5]

Reference: ChEMBL document CHEMBL1909046, “DrugMatrix in vitro pharmacology data”
